# According to US4468511A, “C-20- And C-23-Modified macrolide derivatives” (Eli Lilly and Company, priority 1983, dated 1984):
# Like-named read-outs stand apart in the source and are kept apart here.
# Assays:
# [1] = tested on: Streptococcus pyogenes C203; experiment: Protection of mice experimentally infected with S. pyogenes C203; type: in vivo
# Experimental: Some of the derivatives of this invention have shown in vivo antimicrobial activity against experimentally-induced infections in laboratory animals. When two doses of test compound were administered to mice experimentally infected with S. pyogenes C203, the activity observed was measured as an ED50 value [effective dose in mg/kg to protect 50% of the test animals: see Warren Wick, et al., J. Bacteriol. 81, 233-235 (1961)].
# [2] = tested on: Staphylococcus aureus X400; experiment: MIC, standard agar-dilution assay; type: cell-based
# Experimental: (§1) The MIC's in Table II were determined by standard agar-dilution assays. The MIC's in Table III were obtained using a conventional broth-dilution microtiter test.
# [3] = tested on: Staphylococcus epidermidis EPI2; experiment: MIC, standard agar-dilution assay; type: cell-based; conditions: Staphylococcus epidermidis, EPI2
# Experimental: as §1
# [4] = tested on: Haemophilus influenzae 76; experiment: MIC, standard agar-dilution assay; type: cell-based
# Experimental: as §1
# [5] = tested on: Haemophilus influenzae C.L.; experiment: MIC, standard agar-dilution assay; type: cell-based
# Experimental: as §1
# [6] = tested on: Staphylococcus aureus S13E; experiment: microbe, parasite or virus in culture; type: cell-based
# Experimental: as §1
# [7] = tested on: Staphylococcus epidermidis EPI1; experiment: microbe, parasite or virus in culture; type: cell-based
# Experimental: as §1
# [8] = tested on: Streptococcus sp. 80; experiment: MIC, conventional broth-dilution microtiter test; type: cell-based
# Experimental: (§2) Certain of the derivatives are active against some gram-negative bacteria, such as Pasteurella species. The MIC's in Table II were determined by standard agar-dilution assays. The MIC's in Table III were obtained using a conventional broth-dilution microtiter test.
# [9] = tested on: Mycoplasma synoviae; experiment: MIC, conventional broth-dilution microtiter test; type: cell-based; conditions: Mycoplasmopsis synoviae
# Method in brief: (§3)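 MICs for the two Pasteurella strains and the Mycoplasma strain were read from a broth-dilution microtiter test. The Klebsiella strain was tested on agar instead.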
# [10] = tested on: Pasteurella multocida 68C; experiment: MIC, conventional broth-dilution microtiter test; type: cell-based; conditions: broth-dilution microtiter; Pasteurella multocida 68C; read-out: MIC
# Method in brief: as §3
# [11] = tested on: Pasteurella multocida 17E; experiment: MIC, conventional broth-dilution microtiter test; type: cell-based; conditions: broth-dilution microtiter; Pasteurella multocida 17E, Bovine isolate; read-out: MIC
# Method in brief: as §3
# [12] = tested on: Staphylococcus aureus; experiment: MIC, conventional broth-dilution microtiter test; type: cell-based
# Experimental: as §2
# [13] = tested on: Pasteurella hemolytica 41D; experiment: MIC, conventional broth-dilution microtiter test; type: cell-based; conditions: broth-dilution microtiter; Pasteurella hemolytica 41D; read-out: MIC
# Method in brief: as §3
# [14] = tested on: Mycoplasma gallisepticum 41313; experiment: MIC, conventional broth-dilution microtiter test; type: cell-based; conditions: Mycoplasmoides gallisepticum; broth-dilution microtiter; Mycoplasma gallisepticum 41313, Resistant strain; read-out: MIC
# Method in brief: as §3
# [15] = tested on: Pasteurella hemolytica 22C; experiment: MIC, conventional broth-dilution microtiter test; type: cell-based; conditions: broth-dilution microtiter; Pasteurella hemolytica 22C; read-out: MIC
# Method in brief: as §3
# [16] = tested on: Mycoplasma gallisepticum; experiment: MIC, conventional broth-dilution microtiter test; type: cell-based; conditions: Mycoplasmoides gallisepticum
# Method in brief: as §3
# [17] = tested on: Mycoplasma gallisepticum 34159; experiment: MIC, conventional broth-dilution microtiter test; type: cell-based; conditions: Mycoplasmoides gallisepticum; broth-dilution microtiter; Mycoplasma gallisepticum 34159, Resistant strain; read-out: MIC
# Method in brief: as §3
# [18] = tested on: Mycoplasma hyorhinis; experiment: MIC, conventional broth-dilution microtiter test; type: cell-based; conditions: broth-dilution microtiter; Mycoplasma hyorhinis; read-out: MIC
# Method in brief: as §3
# [19] = tested on: Pasteurella multocida 40G; experiment: MIC, conventional broth-dilution microtiter test; type: cell-based; conditions: broth-dilution microtiter; Pasteurella multocida 40G; read-out: MIC
# Method in brief: as §3
# [20] = tested on: Pasteurella hemolytica 23C; experiment: MIC, conventional broth-dilution microtiter test; type: cell-based; conditions: broth-dilution microtiter; Pasteurella hemolytica 23C; read-out: MIC
# Method in brief: as §3
# [21] = tested on: Pasteurella multocida 22A; experiment: MIC, conventional broth-dilution microtiter test; type: cell-based; conditions: broth-dilution microtiter; Pasteurella multocida 22A; read-out: MIC
# Method in brief: as §3
# [22] = tested on: Pasteurella multocida 60A; experiment: MIC, conventional broth-dilution microtiter test; type: cell-based; conditions: broth-dilution microtiter; Pasteurella multocida 60A, Avian isolate; read-out: MIC
# Method in brief: as §3
# [23] = tested on: Klebsiella pneumoniae KAE; experiment: MIC, standard agar-dilution assay; type: cell-based; conditions: agar-dilution; Klebsiella pneumoniae KAE; read-out: MIC
# Method in brief: as §3
# [24] = tested on: Escherichia coli EC14; experiment: MIC, standard agar-dilution assay; type: cell-based; conditions: agar-dilution; Escherichia coli EC14; read-out: MIC
# Experimental: as §2
# [25] = tested on: Staphylococcus aureus V41; experiment: MIC, standard agar-dilution assay; type: cell-based
# Experimental: as §2
# [26] = tested on: Escherichia coli TEM; experiment: MIC, standard agar-dilution assay; type: cell-based; conditions: agar-dilution; Escherichia coli TEM; read-out: MIC
# Method in brief: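 Minimum inhibitory concentrations against Escherichia coli were measured with a standard agar-dilution method. The result for each derivative is the lowest concentration that inhibits bacterial growth, given in ug/mL.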
# [27] = tested on: Staphylococcus aureus X1.1; experiment: MIC, standard agar-dilution assay; type: cell-based; conditions: Staphylococcus aureus, X1.1
# Method in brief: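 Minimum inhibitory concentration against Staphylococcus aureus strain X1.1 was measured with a standard agar-dilution method. The result is reported as the MIC in ug/mL, i.e. the lowest compound concentration in agar that prevents visible growth of this organism.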
# [28] = tested on: Klebsiella pneumoniae X26; experiment: MIC, standard agar-dilution assay; type: cell-based
# Method in brief: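 Broth microdilution MICs cover P. hemolytica, P. multocida and M. gallisepticum. The agar-dilution MIC covers K. pneumoniae only.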
# [29] = tested on: Streptococcus pyogenes 9960; experiment: MIC, standard agar-dilution assay; type: cell-based
# Experimental: as §2
# [30] = tested on: Streptococcus pneumoniae Park I; experiment: MIC, standard agar-dilution assay; type: cell-based; conditions: Streptococcus pneumoniae
# Experimental: as §2
# [31] = tested on: Streptococcus Group D X66; experiment: MIC, standard agar-dilution assay; type: cell-based; conditions: agar-dilution; Streptococcus Group D X66; read-out: MIC
# Experimental: as §2
# [32] = tested on: Streptococcus pyogenes C203; experiment: MIC, standard agar-dilution assay; type: cell-based
# Experimental: as §2
# [33] = C203, mice, oral, mg/kg × 2, doses given 1 and 4 hours postinfection, read-out: ED50 Oral
Structure (SMILES),"ED50 [1, 33] [mg/kg]",MIC [3] [µg/mL],MIC [6] [µg/mL],MIC [10] [µg/mL],MIC [11] [µg/mL],MIC [13] [µg/mL],MIC [14] [µg/mL],MIC [15] [µg/mL],MIC [16] [µg/mL],MIC [17] [µg/mL],MIC [18] [µg/mL],MIC [19] [µg/mL],MIC [20] [µg/mL],MIC [21] [µg/mL],MIC [22] [µg/mL],MIC [23] [µg/mL],MIC [24] [µg/mL],MIC [26] [µg/mL],MIC [27] [µg/mL],MIC [30] [µg/mL],other results
"CCC1CC(C)C(=O)C=CC(C)=CC(CSc2ccccc2)C(CC)OC(=O)CC(O)C(C)C1OC1OC(C)C(O)C(N(C)C)C1O (stereo not drawn) [Compound 42, 23-Phenylthio-20,23-dideoxy-20-dihydro-OMT]",78,1,1,25,25,25,25,25,6.25,25,25,25,25,25,12.5,> 128,> 128,> 128,1,0.12,"ED50 ([1]; C203, sc, read-out: ED50 Subcutaneous): > 25 mg/kg; MIC ([2]; Staphylococcus aureus, X400): 1 µg/mL; MIC ([4]; Haemophilus influenzae, 76): 16 µg/mL; MIC ([5]; Haemophilus influenzae): 16 µg/mL; MIC ([7]; agar-dilution, Staphylococcus epidermidis EPI1, read-out: MIC): 0.5 µg/mL; MIC ([8]; broth-dilution microtiter, Streptococcus sp. 80, read-out: MIC): 1.56 µg/mL; MIC [9]: 6.25 µg/mL; MIC ([12]; broth-dilution microtiter, read-out: MIC): 1.56 µg/mL; MIC ([25]; agar-dilution, Staphylococcus aureus V41, Penicillin-resistant strain, read-out: MIC): 0.5 µg/mL; MIC ([28]; agar-dilution, Klebsiella pneumoniae X26, read-out: MIC): 16 µg/mL; MIC [29]; 9960: 1 µg/mL; MIC [31]: 0.5 µg/mL; MIC ([32]; Streptococcus pyogenes, C203): 1 µg/mL"
"CCC1CC(C)C(=O)C=CC(C)=CC(COc2cccc(N(C)C)c2)C(CC)OC(=O)CC(O)C(C)C1OC1OC(C)C(O)C(N(C)C)C1O (stereo not drawn) [Compound 44, 23-O-(m-Dimethylaminophenyl)-20-deoxy-20-dihydro-OMT]",> 50,0.5,1,25,50,> 50,12.5,> 50,3.12,12.5,50,25,> 50,50,25,> 128,> 128,> 128,1,0.5,"ED50 ([1]; C203, sc, mice, subcutaneous, mg/kg × 2, doses given 1 and 4 hours postinfection, read-out: ED50 Subcutaneous): > 10 mg/kg; MIC ([2]; agar-dilution, Staphylococcus aureus X400, Methicillin-resistant strain, read-out: MIC): 2 µg/mL; MIC ([4]; agar-dilution, Haemophilus influenzae 76, Ampicillin-resistant strain, read-out: MIC): 16 µg/mL; MIC ([5]; agar-dilution, Haemophilus influenzae C.L., Ampicillin-sensitive strain, read-out: MIC): 16 µg/mL; MIC ([7]; Staphylococcus epidermidis, EPI1): 1 µg/mL; MIC ([8]; Streptococcus, SP.80): 3.12 µg/mL; MIC ([9]; broth-dilution microtiter, Mycoplasma synoviae, read-out: MIC): 12.5 µg/mL; MIC [12]: 1.56 µg/mL; MIC ([25]; Staphylococcus aureus, V41): 1 µg/mL; MIC ([28]; Klebsiella pneumoniae, X26): 32 µg/mL; MIC ([29]; agar-dilution, Streptococcus 9960, read-out: MIC): 2 µg/mL; MIC [31]: 2 µg/mL; MIC ([32]; agar-dilution, Streptococcus pyogenes C203, read-out: MIC): 4 µg/mL"
